Source: EP1806346B1, “Substituted piperazine compounds and their use as fatty acid oxidation inhibitors” (CV THERAPEUTICS, INC., priority 2002, dated 2004)

Test system: Palmitoyl CoA oxidation
Assay: Mitochondrial assay: palmitoyl CoA oxidation
Type: biochemical
Details: Rat heart mitochondria, 16 µM 1-14C palmitoyl CoA, 15 min at 30°C, 14C bicarbonate counted; read-out: PalmCoA IC50
Method: Rat heart mitochondria were isolated by the method ofNedergard and Cannon (Methods in Enzymol. 55, 3, 1979).
Palmitoyl CoA oxidation - The Palmityl CoA oxidation was carried out in a total volume of 100 µL containing the following agents: 110 mM KCl, 33 mM Tris buffer at pH 8, 2 mM KPi, 2 mM MgCl2, 0.1 mM EDTA, 14.7 µM defatted BSA, 0.5 mM malic acid, 13 mM carnitine, 1 mM ADP, 52 µg of mitochondrial protein, and 16 µM 1-14C palmitoyl CoA (Sp. Activity 60 mCi/mmole; 20 µCi/mL, using 5 µL per assay). The compounds of this invention were added in a DMSO solution at the following concentrations: 100 µM, 30 µM, and 3 µM. In each assay, a DMSO control was used. After 15 min at 30°C, the enzymatic reaction was centrifuged (20,000 g for 1 min), and 70 µL of the supernatant was added to an activated reverse phase silicic acid column (approximately 0.5 mL of silicic acid). The column was eluted with 2 mL of water, and 0.5 mL of the eluent was used for scintillation counting to determine the amount of ^14C trapped as ^14C bicarbonate ion.

IC50 [nM]	Structure (SMILES)
4400	Cc1nc2cc(OC[C@H](O)CN3CCN(CC(=O)N[C@@H](C)c4ccccc4)CC3)ccc2s1
180	Cc1nc2cc(OC[C@H](O)CN3CCN(CC(=O)Nc4cccc(-c5ccccc5)c4)CC3)ccc2s1
850	Cc1nc2cc(OC[C@H](O)CN3CCN(CC(=O)N[C@@H](C)c4ccc5ccccc5c4)CC3)ccc2s1
5200	Cc1nc2cc(OC[C@H](O)CN3CCN(CC(=O)Nc4cccc5cccnc45)CC3)ccc2s1
330	Cc1nc2cc(OC[C@H](O)CN3CCN(CC(=O)Nc4ccc(Oc5ccccc5)cc4)CC3)ccc2s1

The next lines start with the compound.

Structure (SMILES)	IC50 [nM]
Cc1nc2cc(OC[C@H](O)CN3CCN(CC(=O)Nc4nc(-c5ccc(Cl)cc5)cs4)C[C@@H]3C)ccc2s1	400
CCn1c2ccccc2c2cc(NC(=O)CN3CCN(C[C@@H](O)COc4ccc5sc(C)nc5c4)CC3)ccc21	850
Cc1nc2cc(OC[C@H](O)CN3CCN(CC(=O)Nc4nc(-c5ccc(Cl)cc5)cs4)CC3)ccc2s1	7000
O=C(CN1CCN(C[C@@H](O)COc2ccc3oc(-c4ccccc4)nc3c2)CC1)Nc1cccc(Oc2ccccc2)c1	8500
O=C(CN1CCN(C[C@@H](O)COc2ccc3oc(-c4ccccc4)nc3c2)CC1)Nc1ccc2ncccc2c1	6200
Cc1nc2cc(OC[C@H](O)CN3CCN(CC(=O)Nc4cccc5c4CCC5)CC3)ccc2s1	15000
Cc1nc2cc(OC[C@H](O)CN3CCN(CC(=O)N[C@H]4CCCc5ccccc54)CC3)ccc2s1	80
